From PubChem BioAssay AID200 (DTP/NCI, 2004)
Where “and” joins values, the source holds several entries; their conditions need not be identical. Equal values may be shown once. Toxic doses and inconclusive results are not listed. Where a SMILES comes first, the peptide text is derived from it. The star is where a group is joined. Cbz = O=C(OCc1ccccc1)*; Bn = c1ccc(C*)cc1

Test system: B6C3F1 mice, B16 melanoma ip, median survival T/C
Experiment: NCI In Vivo Anticancer Drug Screen. Data for tumor model B16 Melanoma (intraperitoneal) in B6C3F1 mice
Details: endpoint: median survival time, higher = longer survival
Method in brief: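 Transplantable tumor in mice; treated vs vehicle control groups; survival or tumor size measured; value = T/C ratio.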

[1] = dose: 3.13 mg/kg/injection, schedule: Q01DX009 (ip), vehicle: saline with Tween-80
[2] = dose: 6.25 mg/kg/injection, schedule: Q01DX009 (ip), vehicle: saline with Tween-80
[3] = dose: 12.5 mg/kg/injection, schedule: Q01DX009 (ip), vehicle: saline with Tween-80
[4] = dose: 25.0 mg/kg/injection, schedule: Q01DX009 (ip), vehicle: saline with Tween-80
[5] = dose: 12.5 mg/kg/injection, schedule: Q01DX009 (ip), vehicle: saline
[6] = dose: 25.0 mg/kg/injection, schedule: Q01DX009 (ip), vehicle: saline
[7] = dose: 50.0 mg/kg/injection, schedule: Q01DX009 (ip), vehicle: saline

O=c1cc(-c2ccccc2)nc(N[N+](=O)[O-])[nH]1
T/C (dose: 11.0 mg/kg/injection, schedule: Q01DX009 (ip), vehicle: Klucel (hydroxypropylcellulose) (HPC)): 91 % of control
T/C (dose: 22.0 mg/kg/injection, schedule: Q01DX009 (ip), vehicle: Klucel (hydroxypropylcellulose) (HPC)): 100 % of control
T/C (dose: 44.0 mg/kg/injection, schedule: Q01DX009 (ip), vehicle: Klucel (hydroxypropylcellulose) (HPC)): 105 % of control
T/C (dose: 88.0 mg/kg/injection, schedule: Q01DX009 (ip), vehicle: Klucel (hydroxypropylcellulose) (HPC)): 88 % of control

O=C1CC(c2ccc(Cl)cc2Cl)Oc2ccc(Cl)cc21 (stereo unspecified)
T/C [1]: 100 % of control
T/C [2]: 93 % of control
T/C [3]: 88 % of control
T/C [4]: 100 % of control

[Cl][Pt+2][Cl].[NH-]c1ccc(C(=O)c2ccccc2)cc1[NH-]
T/C (dose: 20.0 mg/kg/injection, schedule: Q01DX009 (ip), vehicle: saline with Tween-80): 109 % of control and 107 % of control
T/C (dose: 40.0 mg/kg/injection, schedule: Q01DX009 (ip), vehicle: saline with Tween-80): 114 % of control and 116 % of control
T/C (dose: 80.0 mg/kg/injection, schedule: Q01DX009 (ip), vehicle: saline with Tween-80): 112 % of control and 115 % of control
T/C (dose: 160.0 mg/kg/injection, schedule: Q01DX009 (ip), vehicle: saline with Tween-80): 116 % of control
T/C (dose: 320.0 mg/kg/injection, schedule: Q01DX009 (ip), vehicle: saline with Tween-80): 110 % of control and 121 % of control

Clc1ccccc1N1CCN(CCCN2CCN(c3ccccc3Cl)CC2)CC1
T/C [1]: 100 % of control
T/C [2]: 95 % of control
T/C [3]: 94 % of control
T/C [4]: 99 % of control

CC(C)CC(NC(=O)C(O)C(N)Cc1ccccc1)C(=O)O (stereo unspecified)
T/C (dose: 10.0 micrograms/kg/injection, schedule: Q01DX005 (ip), vehicle: saline): 99 % of control
T/C (dose: 10.0 micrograms/kg/injection, schedule: Q01DX005 (oral), vehicle: saline): 100 % of control
T/C (dose: 10.0 micrograms/mouse/injection, schedule: Q01DX006 (ip), vehicle: saline): 101 % of control
T/C (dose: 20.0 micrograms/mouse/injection, schedule: Q01DX006 (oral), vehicle: saline): 95 % of control
T/C (dose: 100.0 micrograms/kg/injection, schedule: Q01DX005 (ip), vehicle: saline): 96 % of control
T/C (dose: 100.0 micrograms/kg/injection, schedule: Q01DX005 (oral), vehicle: saline): 98 % of control
T/C (dose: 100.0 micrograms/mouse/injection, schedule: Q01DX006 (ip), vehicle: saline): 108 % of control
T/C (dose: 200.0 micrograms/mouse/injection, schedule: Q01DX006 (oral), vehicle: saline): 102 % of control

NNc1nncc2ccccc12
T/C [5]: 93 % of control
T/C [6]: 98 % of control
T/C [7]: 93 % of control

Cc1cc2c(cc1C)C(=O)c1c(O)c3c(c(O)c1C2=O)C[C@@](O)(C(=O)CO)C[C@@H]3OC1CC(N)C(O)C(C)O1 (stereo partly specified)
T/C (dose: 2.5 mg/kg/injection, schedule: Q01DX001 (ip), vehicle: water): 193 % of control
T/C (dose: 5.0 mg/kg/injection, schedule: Q01DX001 (ip), vehicle: water): 162 % of control and 193 % of control
T/C (dose: 10.0 mg/kg/injection, schedule: Q01DX001 (ip), vehicle: water): 213 % of control and 236 % of control
T/C (dose: 20.0 mg/kg/injection, schedule: Q01DX001 (ip), vehicle: water): 155 % of control and 240 % of control

Cn1cnc([N+](=O)[O-])c1SCC(=O)O
T/C [3]: 104 % of control
T/C [5]: 109 % of control
T/C [4]: 89 % of control
T/C [6]: 114 % of control
T/C (dose: 50.0 mg/kg/injection, schedule: Q01DX009 (ip), vehicle: saline with Tween-80): 103 % of control
T/C [7]: 122 % of control
T/C (dose: 100.0 mg/kg/injection, schedule: Q01DX009 (ip), vehicle: saline with Tween-80): 98 % of control
T/C (dose: 100.0 mg/kg/injection, schedule: Q01DX009 (ip), vehicle: saline): 108 % of control
T/C (dose: 200.0 mg/kg/injection, schedule: Q01DX009 (ip), vehicle: saline with Tween-80): 97 % of control
T/C (dose: 200.0 mg/kg/injection, schedule: Q01DX009 (ip), vehicle: saline): 104 % of control
T/C (dose: 400.0 mg/kg/injection, schedule: Q01DX009 (ip), vehicle: saline with Tween-80): 97 % of control
T/C (dose: 400.0 mg/kg/injection, schedule: Q01DX009 (ip), vehicle: saline): 99 % of control

CC(C)C(NC(=O)C(CSCc1ccccc1)NC(=O)OCc1ccccc1)C(=O)O (stereo unspecified) (Cbz-Cys(Bn)-Val-OH; configuration not given here)
T/C (dose: 100.0 mg/kg/injection, schedule: Q01DX009 (ip), vehicle: Klucel (hydroxypropylcellulose) (HPC)): 93 % of control
T/C (dose: 200.0 mg/kg/injection, schedule: Q01DX009 (ip), vehicle: Klucel (hydroxypropylcellulose) (HPC)): 98 % of control
